{"source": "patent US12168033B2", "about": "“Synergistic composition for osteoarthritis” (LAILA NUTRACEUTICALS, priority 2014, dated 2024)", "system": "Adjuvant Induced Arthritis", "experiment": "Adjuvant Induced Arthritis in Sprague Dawley rats, Complete Freund's Adjuvant, 20 days (Example 20)", "type": "in vivo", "excerpt": "Sprague Dawley Rats were housed in solid bottom autoclaved polypropylene cages at three rats per cage with stainless steel top grill. Animals were provided with rodent pellet feed and mineral water ad libitum. The animals were acclimatized for a period of 3 days prior to enrollment into the experiment and they are habituated/adapted to the experimenter and to the experimental conditions for measurement of hind limb weight bearing capacity in the Incapacitance meter. A group of 35 animals were examined and 30 healthy SD rats were selected for the study and were randomly assigned to one of five different groups based on the paw volume, i.e., normal control (G1), vehicle control (G2), two groups (G3 & G4) supplemented with test substances composition-11 (200 mg 400 mg) and with reference drug prednisolone 10 mg/kg (G5). After 7 days administration of test item, reference item or vehicle, on day 8 arthritis was induced in rats of all groups except G1 by a single subcutaneous injection of 50 μL Complete Freund's Adjuvant (Sigma-Aldrich, USA), into the sub plantar region of left hind limb. Control group animals were injected with 0.1 mL normal saline (0.9% w/v sodium chloride). The vehicle, test items and reference drug were administered till completion of the study, i.e., 20 days. Paw volume was measured by a Plethysmometer (Pan Lab, LE7500) on day 0 (prior to treatment) and day 20. The difference between the final and initial paw volume was considered as edema volume. The in vivo anti-inflammatory responses of test compounds were estimated by calculating the percentage inhibition of paw edema when compared to the paw edema observed in the CMC supplemented control group. […] Percentage weight bearing capacity was measured in all the groups before induction and on 20th day of treatment using Incapacitance Meter (IITC Life Science Inc., CA)."}
{"smiles": "C[C@]12C=CC(=O)C=C1CC[C@@H]1[C@@H]2[C@@H](O)C[C@@]2(C)[C@H]1CC[C@]2(O)C(=O)CO", "note": "[Prednisolone, prednisolone]", "values": [{"measurement": "Percent Weight Bearing on Left Hind Limb, Day-20", "setting": "10 mmp (prednisolone), Day-20, mean ± S.E.M, six rats", "value": "49.88 ± 1.13", "unit": "%"}, {"measurement": "Percent Weight Bearing on Left Hind Limb, Before Induction", "setting": "10 mmp (prednisolone), before induction", "value": "49.57 ± 0.55", "unit": "%"}, {"measurement": "% inhibition of paw edema", "setting": "prednisolone 10 mg/kg, day 20", "value": 69.7, "unit": "%"}]}
